Test results from ChEMBL document CHEMBL1141136, “Discovery of potent poly(ADP-ribose) polymerase-1 inhibitors from the modification of indeno[1,2-c]isoquinolinone” (J Med Chem, 2005).
“And” between values parts separate entries of the source, which are not always exact repeats. Equal entries are not always repeated.

target: Poly [ADP-ribose] polymerase 1 (Homo sapiens, UniProt P09874); assay: Inhibitory concentration against purified poly ADP-ribose polymerase-1 done in PARP inhibition assay kit
Sequence (P09874 whole entry): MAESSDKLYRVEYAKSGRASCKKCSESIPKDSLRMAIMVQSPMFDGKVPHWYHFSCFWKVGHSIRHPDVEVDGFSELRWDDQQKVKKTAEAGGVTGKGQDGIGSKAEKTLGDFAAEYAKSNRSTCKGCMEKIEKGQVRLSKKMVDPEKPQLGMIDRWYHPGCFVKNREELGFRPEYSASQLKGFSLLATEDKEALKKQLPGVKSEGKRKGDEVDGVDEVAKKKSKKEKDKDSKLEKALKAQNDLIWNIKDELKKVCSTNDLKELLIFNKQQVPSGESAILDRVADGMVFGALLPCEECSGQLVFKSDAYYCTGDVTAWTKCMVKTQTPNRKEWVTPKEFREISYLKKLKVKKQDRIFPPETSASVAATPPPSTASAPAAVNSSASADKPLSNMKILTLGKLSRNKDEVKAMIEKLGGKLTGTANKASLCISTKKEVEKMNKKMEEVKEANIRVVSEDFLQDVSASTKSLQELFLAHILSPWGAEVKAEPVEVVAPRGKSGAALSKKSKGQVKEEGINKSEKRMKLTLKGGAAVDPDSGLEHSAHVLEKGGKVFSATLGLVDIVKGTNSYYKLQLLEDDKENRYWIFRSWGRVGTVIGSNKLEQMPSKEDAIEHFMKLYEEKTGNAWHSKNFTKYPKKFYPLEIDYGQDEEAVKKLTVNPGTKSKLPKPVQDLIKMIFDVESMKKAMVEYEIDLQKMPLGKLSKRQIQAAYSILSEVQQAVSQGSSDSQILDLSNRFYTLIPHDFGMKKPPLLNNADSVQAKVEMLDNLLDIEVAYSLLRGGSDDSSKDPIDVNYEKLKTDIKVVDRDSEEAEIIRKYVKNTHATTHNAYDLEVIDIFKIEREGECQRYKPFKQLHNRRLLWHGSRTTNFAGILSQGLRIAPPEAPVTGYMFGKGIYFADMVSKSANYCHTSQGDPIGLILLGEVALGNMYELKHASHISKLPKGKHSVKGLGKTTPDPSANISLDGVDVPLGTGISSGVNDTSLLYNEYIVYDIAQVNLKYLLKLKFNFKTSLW

Question: Which IC50 does the source give for `O=c1[nH]c2c(c3ccccc13)Cc1cc(S(=O)(=O)NCCCn3ccnc3)ccc1-2` here?
Answer: 0.394 µM

Question: How did the IC50 turn out when `Oc1nc2c(c3ccccc13)Cc1ccc(F)cc1-2` was run?
Answer: 0.5 µM

Question: Which IC50 does the source give for `Nc1ccc2c(c1)-c1[nH]c(=O)c3ccccc3c1C2` here?
Answer: 0.3 µM

Question: With `Nc1ccc2c(c1)Cc1c-2[nH]c(=O)c2ccccc12` as the molecule, how does the IC50 read?
Answer: 0.098 µM

Question: For `O=c1[nH]c2c(c3ccccc13)Cc1cc(F)ccc1-2`, which IC50 is on record?
Answer: 0.65 µM

Question: Which IC50 does the source give for `O=c1[nH]c2c(c3ccccc13)Cc1ccccc1-2` here?
Answer: > 3 µM

Question: How did the IC50 turn out when `O=[N+]([O-])c1ccc2c(c1)-c1nc(O)c3ccccc3c1C2` was run?
Answer: 0.5 µM

Question: Which IC50 does the source give for `O=C(CN1CCOCC1)Nc1ccc2c(c1)-c1nc(O)c3ccccc3c1C2` here?
Answer: > 3 µM and 0.4 µM

Question: How did the IC50 turn out when `CN1CCN(CC(=O)Nc2ccc3c(c2)-c2[nH]c(=O)c4ccccc4c2C3)CC1` was run?
Answer: > 3 µM

Question: With `O=c1[nH]c2c(c3ccccc13)Cc1cc(S(=O)(=O)n3ccnc3)c(F)cc1-2` as the molecule, how does the IC50 read?
Answer: 0.5 µM

Question: Which IC50 does the source give for `O=S(=O)(O)c1ccc2c(c1)Cc1c-2nc(O)c2ccccc12` here?
Answer: 0.7 µM

Question: With `O=S(=O)(NCCCNN1CCOCC1)c1cc2c(cc1F)-c1nc(O)c3ccccc3c1C2` as the molecule, how does the IC50 read?
Answer: 0.45 µM

Question: How did the IC50 turn out when `O=c1[nH]c2c(c3ccccc13)Cc1cc([N+](=O)[O-])ccc1-2` was run?
Answer: 0.3 µM

Question: `O=c1[nH]c2c(c3ccccc13)Cc1cc(S(=O)(=O)NCCCc3ccccc3)ccc1-2` was tested. Which IC50 did it give?
Answer: > 3 µM
